Data on 8 compounds can be found in US20240408081A1, “NOVEL SYNERGISTIC COMBINATIONS AND METHODS OF USE THEREOF FOR TREATING CANCERS” (UNIVERSITE DE BORDEAUX, priority 2021, published 2024).

In data set [1] the test system is NEM157i, SU-DIPG-IVi and NEM163i DMG cells. Kind of data set: Proliferation / cell viability assay (Sulforhodamine B) in DMG cell lines. It is filed as cell-based, human. The following applies: SU-DIPG-IVi and NEM157i; up to 30 μM; absence of GSK-126. The method, then:
Cell growth was measured with the In vitro Toxicology Assay kit (Sulforhodamine B, Sigma Aldrich, Saint Quentin Fallavier, France) according to manufacturer's instructions. Cells were plated at a density of 2000 cells per well in 96-well plates in triplicates. Absorbance was measured at 565 nm using the CLARIOstar multiplate reader (BMG Labtech, Champigny-sur-Marne, France) at indicated time points.

Another data set relates to Huh6 and HepG2 cells. Kind of data set: Clonogenicity assay. It is filed as cell-based, human. To be noted: GSK-126 3 and 4 μM for Huh6 and HepG2; ATR 8 μM; SIM 4 μM; 10 days. On the procedure: Huh6 and HepG2 cells were seeded at 500 and 1000 cells/well respectively in 12-well plates. After attachment, cells were treated with drugs.
Following incubation at 37° C. for 10 days, the cells were fixed with 4% PFA and stained with 0.05% crystal violet. Reading under the Fusion FX (Vilber Lourmat).

Data set [2] has as its system Huh6 and HepG2 hepatoblastoma cells. Kind of data set: Growth and viability of hepatoblastoma cells (Huh6 and HepG2), 2D and 3D spheroid. It is filed as cell-based, human. On the procedure:
(§1) For 2D culture, a total of 2,000 cells/well for Huh6 and 3,000 cells/well for HepG2 were seeded in 96-well microtiter plates. Cell growth was measured at 24 h, 48h, 72h or 96h after genetic manipulation and at 48h or 72h after drug treatment using the in vitro MTS assay Kit or Sulforhodamine B (SRB, Absorbance at 565 nm) assay (Sigma) following manufacturer's instructions. For 3D culture, spheroids were formed as described above and microplates were incubated in an IncuCyte® S3 live cell analysis system and scanned every 8 hours. For genetic manipulation, the lentiviral transductions or the gene depletions were done before the plating. For drug treatments, depending on the experiment and the drug, spheroids were treated at day 4 or 5 for 48h or 72h. Cell viability assay in spheroids was done using 1 μM calcein AM (BioLegend) and 2 μM ethidium homodimer 1 (Sigma) for 30 minutes at 37° C. Spheroids were imaged using an IncuCyte® S3 live cell analysis system. For all cell viability assays, drugs were used at half maximal inhibitory concentration (IC50).

The subject of another data set is Huh6 cells. Kind of data set: Huh6 tumor xenografts in NSG mice. To be noted: intraperitoneal; GSK-126 50 mg/kg, ATR 20 mg/kg 3-times a week; cisplatin 1 mg/kg twice a week. In kind it is in vivo, NOD/LtSz-scid IL2R gamma null (NSG) mice. On the procedure:
NOD/LtSz-scid IL2R gamma null (NSG) mice were bred in standard conditions compliant with regulatory bodies (French government). Sterilized food and water were accessible ad libitum. One million of Huh6 cells in 50% of Matrigel were subcutaneously injected in a total volume of 100 μl in the right flank of 8- to 9-week-old female mice (26-32 g; APAFIS #32917-2021121316283534 v2, Agreement #B33063916, Ministère de l'Enseignement Supérieur, de la Recherche et de l'Innovation).
Tumor growth was monitored by caliper measurement until tumors reached an average volume of 250 mm3 (at day 12, see arrow). […] The vehicle (PBS with 5% DMSO) was injected 3-times a week. Tumor growth was monitored during 16 additional days until tumors control reached a size of 2000 mm3. Thus, all mice were euthanized. Blood was collected from all euthanatized mice and circulating ASAT, ALAT, creatinine, and urea were measured to evaluate the toxicity of the different treatments on the liver and kidneys.

In data set [3] the test system is NEM157i, NEM163i and primary BXdmg1 cells. Description: DMG cell migration, wound scratch assay (IncuCyte). It is filed as cell-based, human. On the procedure:
2×10^4 cells/well were placed in a 96-well and incubated for 24h. An IncuCyte Wound Maker (96-pin wound making tool) was used to make scratches.
Migration was monitored by using the IncuCyte S3 live-cell analysis system (Essen BioScience, Ltd, Royston Hertfordshire, United Kingdom). […] Following functions have been used to optimize visibility of the cells: greyscale mode, bichrome mode, negative, contrast/luminosity, exposition/gamma, negative.

Data set [4] relates to histone H3K27me3 in breast and prostate cancer cells. The following applies: cited from earlier work.
For data set [5] the following is noted: rat; cited from earlier work.
The test system of the next data set is HepG2 cells. Description: Cell viability assay (CellTiter 96 AQueous One / MTS) in HepG2. In kind it is cell-based, human. On the procedure: as §1

Bounds are passed on as bounds.

With `COCCNC(=O)Nc1ccc2nc(-c3cccs3)c(-c3cccs3)nc2c1` [ACSS2 inhibitor], the “effect on DMG cell proliferation, inhibitor alone” value (shortened to “effect … inhibitor alone”) in data set [1] is “no effect”.
Consider `CC(C)c1c(C(=O)Nc2ccccc2)c(-c2ccccc2)c(-c2ccc(F)cc2)n1CC[C@@H](O)C[C@@H](O)CC(=O)O` [Atorvastatin], for which the “proliferation and survival of hepatoblastoma cells (clonogenic cell assay)” value in the data set on Huh6 and HepG2 cells is “little effect”. Also, the “effect … inhibitor alone” value in data set [1] is given as “no effect”. Moreover, the “concentration with antitumor effect, statin alone” value in data set [2] (72 h) is ≥ 50 µM. Besides, the “development of hepatoblastoma in mice (tumor volume)” value in the data set with Huh6 cells is “no effect”. Besides, in data set [3], the “migration compared to DMSO” value is given as “slowed”.
On to `CCCc1cc(C)[nH]c(=O)c1CNC(=O)c1cc(-c2ccnc(N3CCN(C)CC3)c2)cc2c1cnn2C(C)C` [GSK343, N-[(6-methyl-2-oxo-4-propyl-1H-pyridin-3-yl)methyl]-6-[2-(4-methylpiperazin-1-yl)pyridin-4-yl]-1-propan-2-ylindazole-4-carboxamide], for which the “histone H3K27me3 level” value in data set [4] is “suppress”. Further, the clearance result in data set [5] was “high clearance”.
As to `Cc1cc(C)c(CNC(=O)c2cc(-c3ccc(N4CCN(C)CC4)nc3)cc3c2cnn3C(C)C)c(=O)[nH]1` [GSK926, N-[(4,6-dimethyl-2-oxo-1H-pyridin-3-yl)methyl]-6-[6-(4-methylpiperazin-1-yl)pyridin-3-yl]-1-propan-2-ylindazole-4-carboxamide], the “histone H3K27me3 level” value in data set [4] is reported as “suppress”.
For `CCC(C)(C)C(=O)O[C@H]1C[C@@H](C)C=C2C=C[C@H](C)[C@H](CC[C@@H]3C[C@@H](O)CC(=O)O3)[C@H]21` [Simvastatin], the “concentration with antitumor effect, statin alone” value in data set [2] (72 h) is ≥ 20 µM.
On to `CCN(c1cc(-c2ccc(CN3CCOCC3)cc2)cc(C(=O)NCc2c(C)cc(C)[nH]c2=O)c1C)C1CCOCC1` [Tazemetostat, N-[(4,6-dimethyl-2-oxo-1H-pyridin-3-yl)methyl]-3-[ethyl(oxan-4-yl)amino]-2-methyl-5-[4-(morpholin-4-ylmethyl)phenyl]benzamide], for which the “effective concentrations on growth of hepatoblastoma cells” value in data set [2] (48 h) is “above 20 μM”. In addition, the “sensitivity of hepatoblastoma cells in presence of Simvastatin or Atorvastatin” value in data set [2] (72 h, 8 μM Atorvastatin or 4 μM Simvastatin) is “significantly potentiates”.
On to `CN(C/C=C/C#CC(C)(C)C)Cc1cccc2ccccc12` [Terbinafine], for which the “effect … inhibitor alone” value in data set [1] is given as “no effect”.
In the case of `N.N.[Cl][Pt][Cl]` [cisplatin], half-maximal inhibition with HepG2 cells (IC50) required 12 µM. Besides, the “development of hepatoblastoma in mice (tumor volume)” value in the data set with Huh6 cells was “impeded tumor growth”.

As a reminder, the IC50 is the concentration that gives 50% inhibition. A higher IC50 goes with lower potency.
